Results taken from patent US5101027A, “Synthesis of mannojirimycin derivatives” (Monsanto Company, priority 1990, dated 1992).

Key:
[1] = target: T1, α-Fucosidase (Homo sapiens, UniProt P04066); experiment: % inhibition of human liver α-fucosidase catalysed hydrolysis; assay type: biochemical
T1 construct: from tissue; host or cells: human liver
T1 sequence (P04066 32-466): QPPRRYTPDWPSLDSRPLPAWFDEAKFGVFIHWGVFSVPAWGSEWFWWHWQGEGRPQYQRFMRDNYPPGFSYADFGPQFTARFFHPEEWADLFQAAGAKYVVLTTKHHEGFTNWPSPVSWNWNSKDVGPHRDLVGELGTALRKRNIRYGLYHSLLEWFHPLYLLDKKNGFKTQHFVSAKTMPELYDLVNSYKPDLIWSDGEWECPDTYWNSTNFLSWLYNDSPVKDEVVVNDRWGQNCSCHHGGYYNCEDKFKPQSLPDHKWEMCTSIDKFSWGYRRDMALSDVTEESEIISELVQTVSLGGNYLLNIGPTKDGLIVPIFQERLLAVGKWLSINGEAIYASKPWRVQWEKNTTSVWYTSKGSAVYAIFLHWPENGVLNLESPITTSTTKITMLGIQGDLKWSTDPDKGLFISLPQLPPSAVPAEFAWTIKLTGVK
Procedure: % Inhibition of human liver α-fucosidase and α-mannosidase
catalysed hydrolysis of 4-umbelliferyl pyrranosides at
1 mM concentration of inhibitor

[2] = test system: human α-mannosidases; experiment: inhibition of human liver α-mannosidases (summary of lysosomal, Golgi II and neutral); assay type: biochemical; conditions: for specificity and potency of inhibition of human α-mannosidases, HMJ compared with DMJ: HMJ (6) vs DMJ (5)
Description: (§1) The relative potencies of these compounds as fucosidase inhibitors may be understood by considering them as analogues of α-L-fucose; all three compounds have the correct chirality of the secondary hydroxyl groups--the minimum requirement for inhibition of α-fucosidase. […] All the compounds are weaker inhibitors of α-fucosidase than is deoxyfuconojirimycin, since they all lack a lipophilic methyl substituent with correct configuration.

[3] = test system: β-mannosidase; experiment: inhibition of human liver β-mannosidase; assay type: biochemical
Description: as §1

[4] = test system: α-mannosidases; conditions: literature; cited from earlier work
[5] = test system: human liver α-fucosidase; conditions: literature; compared with deoxyfuconojirimycin (4); cited from earlier work
[6] = test system: α-glucosidase; conditions: literature; cited from earlier work

Structure (SMILES)	inhibition of α-fucosidase (in words) [1]	inhibition of β-mannosidase (in words) [3]	specificity and potency of inhibition of human α-mannosidases, HMJ compared with DMJ [2]	other results
OC[C@@H]1N[C@H](CO)[C@@H](O)[C@@H](O)[C@@H]1O [6-Epi-homomannojirimycin (8), 2,6-dideoxy-2,6-imino-L-glycero-D-talo-heptitol]	powerful inhibitors of α-fucosidase			inhibition of α-mannosidases (in words) [2]: did not inhibit any α-mannosidase
OC[C@H]1NC[C@@H](O)[C@@H](O)[C@@H]1O [Deoxymannojirimycin (5), Deoxymannojirimycin]	powerful inhibitors of α-fucosidase	Neither compound inhibited β-mannosidase	very similar	inhibition of α-mannosidases in general (in words) [4]: relatively weak inhibitor of α-mannosidases in general
OC[C@H]1N[C@H](CO)[C@@H](O)C(O)[C@@H]1O (stereo partly drawn) [Homomannojirimycin (6), 2,6-dideoxy-2,6-imino-D-glycero-D-talo-heptitol]	only a weak inhibitor of this enzyme	Neither compound inhibited β-mannosidase	very similar	
C[C@@H]1N[C@H](CO)[C@@H](O)[C@H](O)[C@@H]1O [homofuconojirimycin (3), homofuconojirimycin]				inhibition of human liver α-fucosidase relative to deoxyfuconojirimycin (4) [5]: as powerful an inhibitor of human liver α-fucosidase as is deoxyfuconojirimycin (4)
OC[C@H]1N[C@H](CO[C@@H]2O[C@H](CO)[C@@H](O)[C@H](O)[C@H]2O)[C@H](O)[C@@H](O)[C@@H]1O [β-glucopyranosyl derivative (2)]				α-glucosidase inhibition (in words) [6]: powerful α-glucosidase inhibitor
